The record followed here is BindingDB's records for doi:10.1016/j.bmc.2012.01.022 (Florida A&M University, 2012).

The target in assay [1] is T1, 5-hydroxytryptamine receptor 2C (Homo sapiens, UniProt P28335).
T1 sequence (P28335 whole entry): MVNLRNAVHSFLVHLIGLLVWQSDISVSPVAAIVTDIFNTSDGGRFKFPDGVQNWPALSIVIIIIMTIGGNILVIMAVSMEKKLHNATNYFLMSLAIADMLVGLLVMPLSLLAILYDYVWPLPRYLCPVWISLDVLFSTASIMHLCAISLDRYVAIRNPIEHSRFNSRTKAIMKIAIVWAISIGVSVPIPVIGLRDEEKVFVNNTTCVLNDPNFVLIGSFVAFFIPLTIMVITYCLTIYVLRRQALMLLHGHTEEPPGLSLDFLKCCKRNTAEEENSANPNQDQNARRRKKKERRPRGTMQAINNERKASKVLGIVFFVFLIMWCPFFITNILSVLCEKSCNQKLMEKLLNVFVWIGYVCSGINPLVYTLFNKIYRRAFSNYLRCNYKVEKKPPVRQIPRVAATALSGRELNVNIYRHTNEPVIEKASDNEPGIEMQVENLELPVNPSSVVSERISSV
As to the kind of experiment: Binding affinity at 5-HT2C receptor by radioligand displacement assay. (Loss of bound radioactivity is the signal in a displacement assay; it reports binding, not function.)

The target in assay [2] is 5-hydroxytryptamine receptor 2A (Homo sapiens, UniProt P28223). As to the kind of experiment: Binding affinity at 5-HT2A receptor by radioligand displacement assay.
Chain of 5-hydroxytryptamine receptor 2A (P28223 whole entry): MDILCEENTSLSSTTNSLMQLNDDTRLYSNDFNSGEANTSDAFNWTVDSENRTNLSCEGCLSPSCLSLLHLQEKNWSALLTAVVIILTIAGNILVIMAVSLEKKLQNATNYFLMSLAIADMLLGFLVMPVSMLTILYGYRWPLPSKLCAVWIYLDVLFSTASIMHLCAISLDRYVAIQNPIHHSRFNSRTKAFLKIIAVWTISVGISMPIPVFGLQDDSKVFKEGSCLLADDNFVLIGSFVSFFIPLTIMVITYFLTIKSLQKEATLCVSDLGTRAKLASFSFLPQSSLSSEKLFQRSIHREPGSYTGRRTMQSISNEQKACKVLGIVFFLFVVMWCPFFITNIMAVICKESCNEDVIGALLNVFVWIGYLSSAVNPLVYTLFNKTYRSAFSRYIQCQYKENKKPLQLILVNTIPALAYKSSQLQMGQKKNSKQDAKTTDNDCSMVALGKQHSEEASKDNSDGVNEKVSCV
In assay [3] the target is Histamine H1 receptor (Homo sapiens, UniProt P35367). Description: Displacement of [3H]-Pyrilamine from human histamine H1 receptor by liquid scintillation counter.
Chain of Histamine H1 receptor (P35367 whole entry): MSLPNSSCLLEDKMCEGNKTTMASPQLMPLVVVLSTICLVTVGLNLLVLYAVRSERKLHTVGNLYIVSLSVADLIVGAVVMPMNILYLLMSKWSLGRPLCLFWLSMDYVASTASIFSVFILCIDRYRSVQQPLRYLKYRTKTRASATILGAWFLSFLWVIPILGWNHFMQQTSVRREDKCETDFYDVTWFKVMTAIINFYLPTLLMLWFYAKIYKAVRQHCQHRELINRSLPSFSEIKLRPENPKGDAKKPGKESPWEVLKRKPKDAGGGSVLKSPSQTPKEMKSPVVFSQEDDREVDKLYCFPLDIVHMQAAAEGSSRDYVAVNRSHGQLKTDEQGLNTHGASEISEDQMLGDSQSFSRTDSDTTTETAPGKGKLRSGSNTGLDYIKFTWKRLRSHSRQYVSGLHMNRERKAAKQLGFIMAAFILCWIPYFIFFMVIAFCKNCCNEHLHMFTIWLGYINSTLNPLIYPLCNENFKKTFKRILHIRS
Assay [4] deals with D(2) dopamine receptor (Homo sapiens, UniProt P14416). As to the kind of experiment: Displacement of [3H]-N-methylspiperone from dopamine D2 receptor expressed in human MES-23.5 cells.
Chain of D(2) dopamine receptor (P14416 whole entry): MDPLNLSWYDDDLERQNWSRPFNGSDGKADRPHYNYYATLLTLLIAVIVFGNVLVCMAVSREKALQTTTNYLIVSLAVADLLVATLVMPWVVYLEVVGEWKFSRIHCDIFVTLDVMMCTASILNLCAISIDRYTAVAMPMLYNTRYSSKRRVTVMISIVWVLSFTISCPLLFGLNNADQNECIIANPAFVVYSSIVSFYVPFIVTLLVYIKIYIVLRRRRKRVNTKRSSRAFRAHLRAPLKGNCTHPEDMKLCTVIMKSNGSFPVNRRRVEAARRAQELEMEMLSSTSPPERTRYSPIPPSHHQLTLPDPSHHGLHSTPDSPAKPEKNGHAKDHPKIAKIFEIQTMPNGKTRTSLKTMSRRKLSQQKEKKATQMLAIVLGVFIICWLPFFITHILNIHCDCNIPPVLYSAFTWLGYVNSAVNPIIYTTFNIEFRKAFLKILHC

The structures appear in SMILES notation. A value given as a limit tells only on which side of the number the result lay.

A word on the Ki: it is the equilibrium dissociation constant of an inhibitor or competing ligand from its target. A lower Ki goes with a stronger hold on the target. As to `OC1(c2ccc(Cl)cc2)C[C@H]2CC[C@@H](C1)N2CCCCc1nc2ccccc2s1` (some centres undefined), the inhibitory constant (Ki) in assay [1] was 4.62 µM; in assay [2] it was > 10 µM; in assay [3], 187 nM.
In assay [4], `O=C(CCCCN1[C@@H]2CC[C@H]1CC(O)(c1ccc(Cl)cc1)C2)c1nc2ccccc2s1` (some centres undefined) yielded a Ki of 180 nM.
